Experimental data: patent publication US20080131404A1, “Hepatocytes” (priority 2004, published 2008)

Tests used:
LIV0A07 [1] = assay: TaqMan analysis of CYP3A4/CYP3A7 mRNA in LIV0A07; format: cell-based, human
Method: (§1) A standard TaqMan protocol was following using a 96 well optical reaction plate (Applied Biosystems, CA, USA). All probes and primers were supplied by MWG-Biotech, Ebersberg, Germany (see table 3). All probes were labelled with 3′TAMRA and 5′FAM. The reaction plate was sealed with optical adhesive cover (Applied Biosystems, CA, USA) and centrifuged for 1 min at 500 g before loading onto the TaqMan machine (ABI prism 7000 sequence detection system) and results analysed with ABI prism 7000 SDS software.

LIV0A07 [2] = assay: Immunocytochemistry for hepatocyte markers albumin and CK-18; format: cell-based, human; settings: grown in the absence of 4-OHT for 48 h
Method: Immunocytochemistry was used for early assessment of the cell line. […] The human hepatoma cell line HuH7 was used as a positive control for liver markers, while a myc-immortalised neural stem cell line (197VM) cells were used as a negative control.
All staining was performed in multiwell plates using the following method. Medium was aspirated and cells washed once with PBS prior to fixing using 4% paraformaldehyde for 15 min at room temperature. Cells were then washed three times in PBS, before being permeabilised for 15 min using 0.1% triton x-100 in PBS. Cells were washed with PBS once more then blocked for 1 h in 10% normal goat serum (NGS) (Vector Laboratories, CA, USA) in PBS. Primary antibodies were applied in 1% NGS/PBS for 1 h at room temperature. Cells were washed three times in PBS then exposed to the secondary antibody in 1% NGS/PBS for 1 h at room temperature. Cells were washed three times in PBS and Hoechst, a dye that stains DNA, was added for 2 min at room temperature (1:25,000 in PBS). Cells were washed a further three times in PBS and left in the final wash. Analysis was performed using a fluorescence microscope (Leica DMRA). The secondary antibody excited at a wavelength of ˜488 nm and gave emission at ˜525 nm (green emission) while Hoechst excited at ˜350 nm and emitted at ˜425 nm (blue emission).

LIV0A07 [3] = assay: Cyquant cell proliferation assay; format: cell-based, human
Method: Growth rate was assessed using the Cyquant cell proliferation assay (Molecular Probes, Paisley, UK). Cells were grown in multiwell plates or 25 cm^2 flasks and experiments were performed according to the manufacturers instructions.
Growth rate was assessed using the Cyquant cell proliferation assay to compare growth of LIV0A07 over 5 days in […] 4-OHT.

HuH7 cells = assay: TaqMan analysis of CYP3A4 mRNA in HuH7; format: cell-based, human; settings: HuH7 samples
Method: as §1

[4] = system: clone 20 hepatocytes (c-myc-ER infected human foetal hepatocytes); assay: Telomerase assay (Telo TAGGG telomerase PCR ELISA); format: cell-based; settings: hepatocytes cultured in 0.5-10 μM 4-OHT
Method: Cells from clone 20, p2 were cultured in T25 flasks for 1 week in media with 0, 100 nM, 1 μM and 10 μM 4-OHT for 1 week. The cells had been in culture for 2 months. Uninfected hepatocytes from the same liver were also used for the assay. These cells had been in culture for 3 weeks. The assay was performed according to the instructions for the Telo TAGGG telomerase PCR ELISAPWs (Roche). The plate reader GENios (Tecan) was used to analyse the results. Some of the fluorescence values were too high for the plate readers' spectra so a change to the protocol was done and the fluorescence was measured from only ⅓ of the final volume.

human foetal liver cells = assay: Neomycin titre and selection; format: cell-based; settings: 250 μg/ml neomycin, 2 week selection
Method: To determine what concentration of neomycin to use on the liver cells exposed to the virus, in order to eliminate all or the majority of non-infected cells, but not the infected cells, a titre of neomycin was set up. Human foetal liver cells from a dissociated liver that had never been exposed to the immortalising virus were plated in 6-well plates and exposed to neomycin concentrations ranging from 0-900 μg/ml for 12 days in triplicate. 100, 500 and 2000 cells/well were plate and the cells were left for 2 days before the neomycin was added. The growth and proliferation of the cells were studied visually with the TMS-F microscope (Nikon). Based on the result from the neomycin titre a concentration of 250 μg/ml neomycin was used for 2 weeks on the liver cells exposed to the immortalising virus.

Molecule	CYP3A7 mRNA level on differentiation (LIV0A07 [1]; absence of 4-OHT)	CYP3A4 mRNA level, differentiated vs undifferentiated cultures (LIV0A07 [1]; grown in the absence of 4-OHT for 72 h compared to cultures with 4-OHT)	albumin and CK-18 staining, differentiated cultures (LIV0A07 [2])	proliferation (LIV0A07 [3]; 0.1 mM 4-OHT, 5 days)	toxicity to the cells (LIV0A07 [3]; 1.0 mM 4-OHT, initial slow proliferation after seeding)	proliferation (LIV0A07 [3]; 0.5 and 1.0 mM 4-OHT, 5 days)	optimum concentration for 4-OHT dependent growth (LIV0A07 [3]; in the medium, 5 days) [mM]	effect of 4-OHT on CYP3A4 mRNA expression (HuH7 cells)	telomerase expression [4]	survival of noninfected cells during selection (human foetal liver cells)
4-hydroxytamoxifen [4-OHT]	did not display the same differentiation induced increase	approximately 15 fold	slightly stronger	Little proliferation	may be slightly toxic	expanded to a greater extent	0.5 to 1.0	no effect	up regulates telomerase expression	–
NC[C@@H]1O[C@H](O[C@H]2[C@@H](O)[C@H](O[C@@H]3[C@@H](O)[C@H](N)C[C@H](N)[C@H]3O[C@H]3O[C@H](CN)[C@@H](O)[C@H](O)[C@H]3N)O[C@@H]2CO)[C@H](N)[C@@H](O)[C@@H]1O [neomycin, Neomycin]	–	–	–	–	–	–	–	–	–	majority of the noninfected cells died
